Patent US10869493B2, “Reduced-sweetener products, flavoring mixtures for said reduced-sweetener products and process for the production of products of this type” (SYMRISE AG, priority 2009, dated 2020)

Key:
[1] = Stability of phyllodulcin content under elevated thermal stress (HPLC, UV detection); format: physicochemical; settings: 100 mg/l phyllodulcin in aqueous phosphate buffer pH 9, stored at 40° C., compared to the same quantity as extract
Experimental: The exemplary extract was tested for stability under an elevated thermal stress in comparison to pure phyllodulcin. A solution of 100 mg/l of phyllodulcin and 1.38% of the exemplary ethanolic extract (corresponds to 100 mg of phyllodulcin) in an aqueous phosphate buffer, adjusted to pH 9, was tested immediately after preparation and then at regular weekly intervals for its phyllodulcin content. In this respect, an aliquot of the respective test solution was separated in an HPLC installation (RP phase) and quantified by UV detection compared to a calibration with pure phyllodulcin. The samples were stored at 40° C. in closed glass vessels to prevent evaporation. The phyllodulcin contents of the test solutions are plotted against time in FIG. 1.

[2] = tested on: panelists; experiment: Determination of the sucrose equivalence using a comparative series of sucrose concentrations in water; format: in vivo, human; settings: concentration used in preparation C (1 ppm), method of Application example 1, first part
From the text: The sucrose equivalence ratio of the sucrose equivalence of the concentration of the substances or substance of group (i) to the sucrose equivalence of the concentration of the substance or substances of group (ii) in the corresponding flavoring mixture (and in other mixtures, cf. further below), is established as follows: • 1. A comparative series of different sucrose concentrations in water is produced. Preferred concentrations are 0; 0.25; 0.5; 0.75; 1; 1.5; 2; 3; 4 and 5% by weight sucrose in water. Other concentrations, in particular higher concentrations, can optionally also be used for the comparative series. • 2. […] The determined sucrose equivalence is produced from the average of individual gradings by the individual panelists. • 6. The dilution ratio is then determined, using which solution 1 can be set at a sucrose equivalence of 2% by weight sucrose in water. […] It is of course sensible to have the determined dilution ratio tested once more by the panelists. • 7. Solution 2 (containing the compound(s) of group (ii)) is then diluted in the dilution ratio determined under 6. • 8. Subsequently, the dilute solution 2 is also tasted and compared to the sucrose test series, graded by the panelists and a corresponding sucrose equivalence value is determined (analogously to points 4. and 5.). • 9. […]

| Decomposition of phyllodulcin over time (FIG. 1) [1] | Compound | sucrose equivalence alone in water [2] |
| --- | --- | --- |
| decomposed more rapidly | COc1ccc([C@H]2Cc3cccc(O)c3C(=O)O2)cc1O [phyllodulcin] |  |
|  | COc1ccc(CCC(=O)c2c(O)cc(O[C@@H]3O[C@H](CO)[C@@H](O)[C@H](O)[C@H]3O[C@@H]3O[C@@H](C)[C@H](O)[C@@H](O)[C@H]3O)cc2O)cc1O [neohesperidin dihydrochalcone] | approximately 0.5% |
